This assay concerns the target T1, ASGPR (Homo sapiens, UniProt P07306).
T1 sequence (P07306 1-291): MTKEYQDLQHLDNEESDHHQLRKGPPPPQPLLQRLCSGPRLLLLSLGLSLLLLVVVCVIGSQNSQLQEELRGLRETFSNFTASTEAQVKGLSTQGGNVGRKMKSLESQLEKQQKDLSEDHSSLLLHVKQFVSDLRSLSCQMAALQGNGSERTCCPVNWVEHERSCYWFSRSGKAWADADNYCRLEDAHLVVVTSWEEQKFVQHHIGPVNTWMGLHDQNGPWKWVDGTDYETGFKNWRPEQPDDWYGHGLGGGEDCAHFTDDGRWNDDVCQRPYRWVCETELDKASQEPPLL
The assay is described as follows: Affinity to ASGPR by surface plasmon resonance (SPR). On the technique in general: SPR reads the build-up and loss of mass on a sensor chip optically.

Where a SMILES comes first, the peptide text is derived from it. Bridges are numbered along the chain shown (N, C = ends). The star is where a group is joined. X5 = O=C(CCCCCn1cc(CCCC(=O)*)nn1)NC(COCc1cn(CCOCCOCCOCCOC[C@H]2OC[C@H](Nc3nccc(C(F)(F)F)n3)[C@@H](O)[C@H]2O)nn1)COCc1cn(CCOCCOCCOCCOC[C@H]2OC[C@H](Nc3nccc(C(F)(F)F)n3)[C@@H](O)[C@H]2O)nn1; PEG4 = NCCOCCOCCOCCOCCC(=O)O

This passage reports Kd results from patent publication US12091402B2 (Avilar Therapeutics, Inc., priority 2021, dated 2024).

By Kd is commonly meant the equilibrium constant for the complex coming apart. In turn, `[N-]=[N+]=NC[C@H]1OC[C@H](Nc2nccc(C(F)(F)F)n2)[C@@H](O)[C@H]1O` [A59, (2R,3R,4R,5S)-2-(azidomethyl)-5-((4-(trifluoromethyl)pyrimidin-2-yl)amino)tetrahydro-2H-pyran-3,4-diol] came in with a dissociation constant Kd of less than 1 µM.

As for `NC(=O)c1sc(N[C@H]2CO[C@H](CO)[C@H](O)[C@@H]2O)nc1C(F)(F)F` [A54, 2-(((3S,4R,5R,6R)-4,5-dihydroxy-6-(hydroxymethyl)tetrahydro-2H-pyran-3-yl)amino)-4-(trifluoromethyl)thiazole-5-carboxamide], the Kd is greater than 20 µM.

In turn, `OC[C@@]12CO[C@@H](O1)[C@H](Nc1nc3ccccc3o1)[C@@H](O)[C@H]2O` [A45, (1S,2R,3R,4R,5S)-4-(benzo[d]oxazol-2-ylamino)-1-(hydroxymethyl)-6,8-dioxabicyclo[3.2.1]octane-2,3-diol] returned a Kd of 1 to 10 µM.

With `OC[C@@]12CO[C@@H](O1)[C@H](Nc1ncc3c(C(F)(F)F)n[nH]c3n1)[C@@H](O)[C@H]2O` [A37, (1S,2R,3R,4R,5S)-1-(hydroxymethyl)-4-((3-(trifluoromethyl)-1H-pyrazolo[3,4-d]pyrimidin-6-yl)amino)-6,8-dioxabicyclo[3.2.1]octane-2,3-diol], the Kd was greater than 20 µM.

The molecule `COCCO[C@@H]1O[C@H](CO)[C@H](O)[C@H](O)[C@H]1NC(=O)C(F)(F)F` [A104, N-((2R,3R,4R,5R,6R)-4,5-dihydroxy-6-(hydroxymethyl)-2-(2-methoxyethoxy)tetrahydro-2H-pyran-3-yl)-2,2,2-trifluoroacetamide] showed a Kd of 1 to 10 µM.

In the case of `O=C(O)COCCOCCOCCOC[C@H]1OC[C@H](Nc2nccc(C(F)(F)F)n2)[C@@H](O)[C@H]1O` [A25, 1-((2R,3R,4R,5S)-3,4-dihydroxy-5-((4-(trifluoromethyl)pyrimidin-2-yl)amino)tetrahydro-2H-pyran-2-yl)-2,5,8,11-tetraoxatridecan-13-oic acid], the Kd is 0.1 to 0.5 µM.

`OC[C@@]12CO[C@@H](O1)[C@H](Nc1nc(Cl)ncc1C(F)(F)F)[C@@H](O)[C@H]2O` [A114, (1S,2R,3R,4R,5S)-4-((2-chloro-5-(trifluoromethyl)pyrimidin-4-yl)amino)-1-(hydroxymethyl)-6,8-dioxabicyclo[3.2.1]octane-2,3-diol] returned a Kd of less than 1 µM.

`C=CCO[C@H]1O[C@H](Cn2ccnn2)[C@H](O)[C@H](O)[C@H]1Nc1nccc(C(F)(F)F)n1` [A69, (2R,3R,4R,5R,6S)-2-((1H-1,2,3-triazol-1-yl)methyl)-6-(allyloxy)-5-((4-(trifluoromethyl)pyrimidin-2-yl)amino)tetrahydro-2H-pyran-3,4-diol] yielded a Kd of less than 1 µM.

With `CC(=O)NC[C@H]1OC[C@H](Nc2cncc(C(F)(F)F)n2)[C@@H](O)[C@H]1O` [A90, N-(((2R,3R,4R,5S)-3,4-dihydroxy-5-((6-(trifluoromethyl)pyrazin-2-yl)amino)tetrahydro-2H-pyran-2-yl)methyl)acetamide], the Kd is less than 1 µM.

Molecule `O=C(O)CC(=O)NC(COCCC(=O)NCCOCCOCCOCCOC[C@H]1OC[C@H](Nc2cncc(C(F)(F)F)n2)[C@@H](O)[C@H]1O)COCCC(=O)NCCOCCOCCOCCOC[C@H]1OC[C@H](Nc2cncc(C(F)(F)F)n2)[C@@H](O)[C@H]1O` [A34, 1-((2R,3R,4R,5S)-3,4-dihydroxy-5-((6-(trifluoromethyl)pyrazin-2-yl)amino)tetrahydro-2H-pyran-2-yl)-20-(1-((2R,3R,4R,5S)-3,4-dihydroxy-5-((6-(trifluoromethyl)pyrazin-2-yl)amino)tetrahydro-2H-pyran-2-yl)-15-oxo-2,5,8,11,18-pentaoxa-14-azanonadecan-19-yl)-15,22-dioxo-2,5,8,11,18-pentaoxa-14,21-diazatetracosan-24-oic acid] returned a Kd of less than 0.1 µM.

In the case of `C[C@@H]1O[C@H](CO)[C@H](O)[C@H](O)[C@H]1Nc1nc(Cl)ns1` [A56, (2R,3R,4R,5R,6S)-5-((3-chloro-1,2,4-thiadiazol-5-yl)amino)-2-(hydroxymethyl)-6-methyltetrahydro-2H-pyran-3,4-diol], the Kd lay in the range of 1 to 10 µM.

For `OC[C@@]12CO[C@@H](O1)[C@H](Nc1cccc(C(F)(F)F)n1)[C@@H](O)[C@H]2O` [A87, (1S,2R,3R,4R,5S)-1-(hydroxymethyl)-4-((6-(trifluoromethyl)pyridin-2-yl)amino)-6,8-dioxabicyclo[3.2.1]octane-2,3-diol], the Kd is less than 1 µM.

For the molecule `CN(C[C@H]1OC[C@H](Nc2cncc(C(F)(F)F)n2)[C@@H](O)[C@H]1O)c1ccccc1` [A99, (2R,3R,4R,5S)-2-((methyl(phenyl)amino)methyl)-5-((6-(trifluoromethyl)pyrazin-2-yl)amino)tetrahydro-2H-pyran-3,4-diol], the Kd is less than 1 µM.

For `[N-]=[N+]=NCCCCCC(=O)NC(COCCC(=O)NCCOCCOCCOCCOC[C@@]12CO[C@@H](O1)[C@H](Nc1nc(Cl)ns1)[C@@H](O)[C@H]2O)COCCC(=O)NCCOCCOCCOCCOC[C@@]12CO[C@@H](O1)[C@H](Nc1nc(Cl)ns1)[C@@H](O)[C@H]2O` [A14, 3,3′-((2-(6-azidohexanamido)propane-1,3-diyl)bis(oxy))bis(N-(1-((1S,2R,3R,4R,5S)-4-((3-chloro-1,2,4-thiadiazol-5-yl)amino)-2,3-dihydroxy-6,8-dioxabicyclo[3.2.1]octan-1-yl)-2,5,8,11-tetraoxatridecan-13-yl)propanamide)], the Kd lay in the range of 0.1 to 0.5 µM.

`O[C@@H]1[C@H](O)[C@@H](Nc2cncc(C(F)(F)F)n2)CO[C@@H]1CN1CCCCC1` [A96, (2R,3R,4R,5S)-2-(piperidin-1-ylmethyl)-5-((6-(trifluoromethyl)pyrazin-2-yl)amino)tetrahydro-2H-pyran-3,4-diol] registered a Kd of 1 to 10 µM.

The molecule `C=CCO[C@H]1O[C@H](Cn2cc(CO)nn2)[C@H](O)[C@H](O)[C@H]1NC(=O)C(F)(F)F` [A63, N-((2S,3R,4R,5R,6R)-2-(allyloxy)-4,5-dihydroxy-6-((4-(hydroxymethyl)-1H-1,2,3-triazol-1-yl)methyl)tetrahydro-2H-pyran-3-yl)-2,2,2-trifluoroacetamide] returned a Kd of 1 to 10 µM.

For the molecule `NC[C@H]1OC[C@H](Nc2cncc(C(F)(F)F)n2)[C@@H](O)[C@H]1O` [A89, (2R,3R,4R,5S)-2-(aminomethyl)-5-((6-(trifluoromethyl)pyrazin-2-yl)amino)tetrahydro-2H-pyran-3,4-diol], the Kd was less than 1 µM.

As for `COC(=N)c1cc(OC)nc(N[C@H]2CO[C@H](CO)[C@H](O)[C@@H]2O)n1` [A48, methyl 2-(((3S,4R,5R,6R)-4,5-dihydroxy-6-(hydroxymethyl)tetrahydro-2H-pyran-3-yl)amino)-6-methoxypyrimidine-4-carbimidate], the Kd is 1 to 10 µM.

For `CCOC(=O)c1ccc(Cl)nc1N[C@H]1[C@H]2OC[C@](CO)(O2)[C@H](O)[C@@H]1O` [A112, ethyl 6-chloro-2-(((1S,2R,3R,4R,5S)-2,3-dihydroxy-1-(hydroxymethyl)-6,8-dioxabicyclo[3.2.1]octan-4-yl)amino)nicotinate], the Kd was 1 to 10 µM.

Turning to `OC[C@@]12CO[C@@H](O1)[C@H](Nc1ncc(C(F)(F)F)c(Cl)n1)[C@@H](O)[C@H]2O` [A115, (1S,2R,3R,4R,5S)-4-((4-chloro-5-(trifluoromethyl)pyrimidin-2-yl)amino)-1-(hydroxymethyl)-6,8-dioxabicyclo[3.2.1]octane-2,3-diol], the Kd is less than 1 µM.

`N=C(N)N[C@H]1CO[C@H](COCc2ccccc2)[C@H](OCc2ccccc2)[C@@H]1OCc1ccccc1` [A73, 1-((3S,4R,5R,6R)-4,5-bis(benzyloxy)-6-((benzyloxy)methyl)tetrahydro-2H-pyran-3-yl)guanidine] gave a Kd greater than 20 µM.

In turn, `OC[C@H]1OCC(Nc2cc(C(F)(F)F)[nH]n2)[C@@H](O)[C@H]1O` (stereo in doubt) [A93, (2R,3R,4R,5S)-2-(hydroxymethyl)-5-((5-(trifluoromethyl)-1H-pyrazol-3-yl)amino)tetrahydro-2H-pyran-3,4-diol] displayed a Kd greater than 0.1 µM.

`CC(C)C[C@@H]1NC(=O)[C@@H](NC(=O)[C@@H](NC(=O)[C@H](CCC(N)=O)NC(=O)[C@H](Cc2cnc[nH]2)NC(=O)CCOCCOCCOCCOCCNC(=O)CCCc2cn(CCCCCC(=O)NC(COCc3cn(CCOCCOCCOCCOC[C@H]4OC[C@H](Nc5nccc(C(F)(F)F)n5)[C@@H](O)[C@H]4O)nn3)COCc3cn(CCOCCOCCOCCOC[C@H]4OC[C@H](Nc5nccc(C(F)(F)F)n5)[C@@H](O)[C@H]4O)nn3)nn2)C(C)C)CSSC[C@@H](C(=O)N[C@@H](Cc2ccccc2)C(=O)N[C@@H](CO)C(=O)N[C@H](C(N)=O)[C@@H](C)O)NC(=O)[C@H](C(C)C)NC(=O)[C@@H]2CCCN2C(=O)[C@H](CCCNC(=N)N)NC(=O)CNC(=O)[C@H](CCCNC(=N)N)NC(=O)[C@H](Cc2ccc(O)cc2)NC(=O)[C@H](CO)NC1=O` [Compound 57] ({X5-PEG4}-HQVCLSYRGRPVCFST-NH2; disulfide 4-13) returned a Kd of less than 0.1 µM.

Molecule `C[C@@H]1O[C@H](CO)[C@H](O)[C@H](O)[C@H]1Nc1nccc(C(F)(F)F)n1` [A55, (2R,3R,4R,5R,6S)-2-(hydroxymethyl)-6-methyl-5-((4-(trifluoromethyl)pyrimidin-2-yl)amino)tetrahydro-2H-pyran-3,4-diol] showed a dissociation constant (Kd) of 10 to 100 µM.

Molecule `C[C@@H]1O[C@H](CO)[C@H](O)[C@H](O)[C@H]1N=[N+]=[N-]` [A50, (2R,3R,4R,5R,6S)-5-azido-2-(hydroxymethyl)-6-methyltetrahydro-2H-pyran-3,4-diol] returned a Kd greater than 20 µM.

In turn, `O=C(O)COc1ccc(COC[C@H]2OC[C@H](Nc3cncc(C(F)(F)F)n3)[C@@H](O)[C@H]2O)cc1` [A19, 2-(4-((((2R,3R,4R,5S)-3,4-dihydroxy-5-((6-(trifluoromethyl)pyrazin-2-yl)amino)tetrahydro-2H-pyran-2-yl)methoxy)methyl)phenoxy)acetic acid] returned a Kd of less than 0.1 µM.
